Measurements reported in patent US11813338B2, “Diagnosing and treating cancer” (The Trustees of the University of Pennsylvania, priority 2013, dated 2023).

What was measured:
ChoK [1] = experiment: ChoK activity by 14C-labeled choline uptake, TLC/autoradiography, in MDA-MB-231 cells; assay type: cell-based, human; conditions: for ChoK inhibition (PC production as % control): MDA-MB-231 cells, increasing concentrations, 14 h following 14C-choline addition; for IC50 of ChoK inhibition: relative to positive control MN58b
Protocol: ChoK activity was assessed in triple-negative MDA-MB-231 breast cancer cells and in non-transformed MCF10a breast epithelial cells using ^14C-labeled choline uptake.
MDA-MB-231 cells and non-malignant MCF-10a cells were incubated for 14 hr with JAS239 and analyzed by TLC/autoradiography after ^14C-choline labeling.
MDA-MB-231 cells were incubated with increasing concentrations of JAS239 or JAS240. 14 h following ^14C-choline addition, cells were extracted for TLC/autoradiography analysis. […] MN58b was used as positive control.

ChoK [2] = biological target: T1, ChoK (Homo sapiens, UniProt P35790); experiment: Choline competition: phosphorylation of 14C-labeled choline with varying choline concentrations; assay type: cell-based; conditions: MDA-MB-231 cells, 2 hr, 10 μM
T1 construct: endogenous in cells; host or cells: MDA-MB-231 (and MCF10a) cells
Protocol: (§1) MDA-MB-231 cells were treated for 2 hr with or without 10 μM JAS239 in the presence of varying concentrations of choline. Autoradiography was used to estimate phosphorylation of ^14C-labeled choline. Fluorimetry was performed under the same cellular conditions for estimation of probe uptake (Excitation 640 nm, Emission 770 nm). These values represent a ratio of JAS239 treated vs. untreated cells, and are reported relative to control.

MDA-MB-231 cells [3] = experiment: Fluorimetry of probe uptake in MDA-MB-231 cells; assay type: cell-based, human
Protocol: MDA-MB-231 cells were incubated with JAS239 and the fluorescence measured (Excitation 640 nm, Emission 770 nm).
as §1

MDA-MB-231 cells [4] = experiment: Fluorescent confocal microscopy, subcellular localization; assay type: cell-based, human; conditions: 2 μM
Protocol: (§2) Immunofluorescence studies confirmed the specificity of ChoKα binding (FIG. 7). […] Cells were treated with a Rabbit polyclonal antibody to human ChoKα followed by a Texas Red Goat Anti-Rabbit IgG secondary antibody. Confocal images were taken using a Leica DMI6000 B microscope with channels for Texas Red (Ex: 594 nm, Em: 600-630 nm), and JAS239 (Ex: 633 nm, Em: 728-800 nm).

human ChoKα = biological target: T2, human ChoKα (Homo sapiens, UniProt P35790); experiment: Immunofluorescence study of ChoKα binding specificity; assay type: cell-based; conditions: fixed permeabilized MDA-MB-231 cells, 2 μM, added before or after ChoKα antibody
T2 construct: endogenous in cells; host or cells: MDA-MB-231 cells (fixed, permeabilized)
Protocol: as §2

MDA-MB-231 tumors = experiment: In vivo fluorescence distribution in mice bearing MDA-MB-231 tumors; set-up: species or system athymic nude mice

T2 sequence (P35790 whole entry): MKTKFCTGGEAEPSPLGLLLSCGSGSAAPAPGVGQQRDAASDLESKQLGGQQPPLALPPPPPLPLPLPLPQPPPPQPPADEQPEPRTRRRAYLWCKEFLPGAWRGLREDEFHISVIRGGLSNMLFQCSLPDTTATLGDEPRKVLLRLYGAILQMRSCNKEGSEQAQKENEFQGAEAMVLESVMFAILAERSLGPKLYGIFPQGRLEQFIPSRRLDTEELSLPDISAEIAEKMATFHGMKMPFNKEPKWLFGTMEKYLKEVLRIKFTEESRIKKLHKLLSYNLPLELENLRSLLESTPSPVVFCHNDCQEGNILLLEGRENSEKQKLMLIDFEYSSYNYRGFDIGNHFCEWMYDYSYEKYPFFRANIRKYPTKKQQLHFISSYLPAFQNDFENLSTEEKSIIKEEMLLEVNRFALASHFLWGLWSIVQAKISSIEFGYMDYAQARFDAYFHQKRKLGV
T1 sequence (P35790 whole entry): as above

Row | SMILES | Time by which ChoK inhibition is present (ChoK [1]) [min] | Sensitivity of MDA-MB-231 cells versus non-transformed MCF10a cells (ChoK [1]; 14 hr incubation, 14C-choline labeling) | ChoK inhibition (PC production as % control) (ChoK [1]) | IC50 of ChoK inhibition (ChoK [1]) | Mode of ChoK inhibition (ChoK [2]) | Time by which cell uptake is detectable (MDA-MB-231 cells [3]) [min] | Cell uptake versus exogenous choline concentration (MDA-MB-231 cells [3]; MDA-MB-231 cells, 10 μM, 2 hr) | Cell uptake versus probe concentration (MDA-MB-231 cells [3]; MDA-MB-231 cells, Excitation 640 nm, Emission 770 nm) | Subcellular localization (MDA-MB-231 cells [4]) | Specificity of binding to ChoKα (human ChoKα) | Tissue accumulation of probe fluorescence (MDA-MB-231 tumors; 20 nmol i.v., 15 min post-injection, Ex. 745 nm, Em 800 nm) | Fluorescence in background muscle tissue (MDA-MB-231 tumors; excised tissue, dual CCD fluorescence camera)
1 | CC1(C)C(/C=C/C=C/C=C/C=C2\N(CCO)c3ccccc3C2(C)C)=[N+](CCO)c2ccccc21 [JAS239, 1-(2-hydroxyethyl)-2-((1E,3E,5E)-7-((Z/E)-1-(2-hydroxyethyl)-3,3-dimethylindolin-2-ylidene)hepta-1,3,5-trien-1-yl)-3,3-dimethyl-3H-indol-1-ium chloride] | ≤ 60 | greater sensitivity | ChoK inhibition at physiologically-relevant concentrations | comparable to MN58b | competitive inhibitor of ChoK | ≤ 15 | independent of exogenous choline concentration | linearly proportional to concentration | co-localizes with the cytosolic expression of ChoK | specific to ChoKα | accumulate in the kidneys and tumor | no fluorescence detectable
2 | CN1\C(=C/C=C/C=C/C=C/C2=[N+](C)c3ccccc3C2(C)C)C(C)(C)c2ccccc21.[I-] [JAS240, 1,3,3-trimethyl-2-((1E,3E,5E)-7-((Z/E)-1,3,3-trimethylindolin-2-ylidene)hepta-1,3,5-trien-1-yl)-3H-indol-1-ium iodide] |  |  | ChoK inhibition at physiologically-relevant concentrations | comparable to MN58b |  |  |  |  | localized to the cytoplasm |  |  | 
